Laboratory results from patent US7956069B2, “Compounds” (AstraZeneca AB, priority 2006, dated 2011).

Target: T1, hM1 (human Muscarinic receptor subtype 1) (Homo sapiens, UniProt P11229)
T1 construct: expressed in transfected cells; host or cells: CHO cells (Chinese hamster ovary cells, ATCC)
T1 sequence (P11229 1-460): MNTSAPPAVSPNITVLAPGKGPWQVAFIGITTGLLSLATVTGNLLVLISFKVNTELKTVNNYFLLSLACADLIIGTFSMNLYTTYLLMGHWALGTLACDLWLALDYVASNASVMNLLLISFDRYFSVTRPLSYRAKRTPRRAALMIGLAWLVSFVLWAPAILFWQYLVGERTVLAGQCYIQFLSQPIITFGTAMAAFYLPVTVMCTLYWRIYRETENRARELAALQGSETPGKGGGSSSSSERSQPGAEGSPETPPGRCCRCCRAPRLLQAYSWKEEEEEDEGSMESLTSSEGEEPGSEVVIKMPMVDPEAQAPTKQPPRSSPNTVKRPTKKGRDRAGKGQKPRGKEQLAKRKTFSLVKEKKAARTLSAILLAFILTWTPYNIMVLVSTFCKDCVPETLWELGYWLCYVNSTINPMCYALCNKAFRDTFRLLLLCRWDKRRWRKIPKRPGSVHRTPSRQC
Test: Human M1 calcium mobilization FLIPR assay
Format: cell-based
Details: CHO cells expressing hM1, Ca2+ release
Method: Biological Evaluation Human M1, Rat M1, Human M3 and Human M5 Calcium Mobilization FLIPR™ Assay
The compound activity in the present invention (EC50 or IC50) was measured using a 384 plate-based imaging assay that monitors drug induced intracellular Ca^2+ release in whole cells. Activation of hM1 (human Muscarinic receptor subtype 1, gene bank access NM_000738), rM1 (rat Muscarinic receptor subtype 1, gene bank access NM_080773), hM3 (human Muscarinic receptor subtype 3, gene bank access NM_000740NM_000740) and hM5 (human Muscarinic receptor subtype 5, gene bank access NM_0121258), receptors expressed in CHO cells (Chinese hamster ovary cells, ATCC) was quantified in a Molecular Devices FLIPR II™ instrument as an increase in fluorescent signal. Inhibition of hM3 and hM5 by compounds was determined by the decrease in fluorescent signal in response to 20 nM carbachol activation.
CHO cells were plated in 384-black polylysine coated plate (Costar) at 8000 cells/well/50 μl for 24 hours or 4000 cells/well for 48 hours in a humidified incubator (5% CO2 and 37° C.) in DMEM/F12 medium without selection agent. Prior to the experiment the cell culture medium was removed from the plates by inversion. A loading solution of 30 μl of Hank's balanced salt solution, 10 mM Hepes and 2.5 mM Probenicid at Ph 7.4 (Cat no. 311-520-VL, Wisent) with 2 μM calcium indicator dye (FLUO-3AM, Molecular Probes F14202) was added to each well. Plates were incubated at 37° C. for 60 minutes prior to start the experiment. The incubation was terminated by washing the cells four times in assay buffer, leaving a residual 25 μl buffer per well. Cell plates were then transferred to the FLIPR, ready for compound additions.
The day of experiment, carbachol and compounds were diluted in three-fold concentration range (10 points serial dilution) for addition by FLIPR instrument. For all calcium assays, a baseline reading was taken for 30 seconds followed by the addition of 12.5 μl (25 μl for hM1 and rM1) of compounds, resulting in a total well volume of 37.5 μl (50 μl for hM1 and rM1). Data were collected every 1.6 seconds for 300 seconds. For hM3 and hM5 an additional 12.5 μl of carbachol (20 nM final) was added at 300 seconds. After this addition of carbachol (producing a final volume of 50 μl), the FLIPR continued to collect data every 2 seconds for 240 seconds. The fluorescence emission was read using filter 1 (emission 520-545 nm) by the FLIPR on board CCD camera.
Calcium mobilization output data were calculated as the maximal relative fluorescence unit (RFU) minus the minal value for both compound and agonist reading frame (except for hM1 and rM1 using only the maximal RFU). Data were analyzed using sigmoidal fits of a non-linear curve-fitting program (XLfit version 5.0.6 from ID Business Solutions Limited, Guildford, UK). All EC50 and IC50 values are reported as arithmetic means±standard error of mean of ‘n’ independent experiments.

EC50 [nM]	SMILES
2.5	O=C(OCCF)N1CCC(N2CCC(N3C(=O)N[C@H]4CCCC[C@@H]43)CC2)CC1
200	COc1ccccc1C(=O)N1CCC(N2CCC(N3C(=O)N[C@@H]4CCCC[C@H]43)CC2)CC1
5	CCOC(=O)N1CC[C@H](N2CCC(N3C(=O)N[C@H]4CCCC[C@@H]43)CC2)C1
9.2	O=C1CCCN1CCC(=O)N1CCC(N2CCC(N3C(=O)N[C@@H]4CCCC[C@H]43)CC2)CC1
1.1	CCOC(=O)N1CCC(N2CCC(N3C(=O)N[C@H]4CCCC[C@@H]43)CC2)CC1
6.8	O=C1CCCN1CCC(=O)N1CCC(N2CCC(N3C(=O)N[C@H]4CCCC[C@@H]43)CC2)CC1
15	CC(C)OC(=O)N1CCC(N2CCC(N3C(=O)N[C@@H]4CCCC[C@@H]43)CC2)CC1
94	CN1C(=O)N(C2CCN(C3CCN(C(=O)C4CC4)CC3)CC2)[C@H]2CCCC[C@@H]21
46	O=C(C1CC1)N1CCC(N2CCC(N3C(=O)N[C@@H]4CCCC[C@H]43)CC2)CC1
95	O=C(C1CCCC1)N1CCC(N2CCC(N3C(=O)N[C@H]4CCCC[C@@H]43)CC2)CC1
14	CC(C)OC(=O)N1CCC(N2CCC(N3C(=O)C[C@H]4CCCC[C@@H]43)CC2)CC1
4.6	CC(C)OC(=O)N1CCC(N2CCC(N3C(=O)N[C@H]4CCCC[C@@H]43)CC2)CC1
